Laboratory results reported in ChEMBL document CHEMBL3885861, “Open TG-GATES”.

Species on record: Rattus norvegicus
Test: Open TG-GATES - Regimen: Daily Repeat
Type: toxicity, organism-based, Sprague-Dawley
Parameters: regimen Daily Repeat, gender Male, age 6 weeks
Details: in vivo, po, 150 mg/kg, route gavage, dose level Middle; for APTT / Bas / Eos / Fbg / Hb / Ht / Lym / MCH / MCHC / MCV / Mono / Neu / PT / Plat / RBC / Ret / WBC: tissue Blood; for KIDNEY_L / KIDNEY_R / KIDNEY_TOTAL: tissue Kidney; for LIVER: tissue Liver; for A/G / ALP / ALT / AST / BUN / CRE / Ca / Cl / DBIL / GLC / IP / K / LDH / Na / PL / RALB / TBIL / TC / TG / TP / gamma-GTP: tissue Plasma

Q: Which results are given for `CC(=O)Oc1cc(C(C)C)c(OCCN(C)C)cc1C` [MOXISYLYTE]?
A: TERMINAL_BW (72 h, time 3 day): 223.4 g; APTT (72 h, time 3 day): 20.6 s; Bas (72 h, time 3 day): 0%; Eos (72 h, time 3 day): 1%; Fbg (72 h, time 3 day): 313 mg/dL; Hb (72 h, time 3 day): 14.1 g/dL; Ht (72 h, time 3 day): 40.5%; Lym (72 h, time 3 day): 78%; MCH (72 h, time 3 day): 21.3 pg; MCHC (72 h, time 3 day): 34.8%; MCV (72 h, time 3 day): 61.2 fL; Mono (72 h, time 3 day): 2.4%; Neu (72 h, time 3 day): 17.6%; PT (72 h, time 3 day): 16.2 s; Plat (72 h, time 3 day): 113.1 x10_4/uL; RBC (72 h, time 3 day): 663.6 x10_4/ul; Ret (72 h, time 3 day): 6.3%; WBC (72 h, time 3 day): 91.7 x10_2/uL; KIDNEY_L (72 h, time 3 day): 1 g; KIDNEY_R (72 h, time 3 day): 1 g; KIDNEY_TOTAL (72 h, time 3 day): 2 g; LIVER (72 h, time 3 day): 9.7 g; A/G (72 h, time 3 day): 1.3; ALP (72 h, time 3 day): 1491.8 IU/L; ALT (72 h, time 3 day): 42.6 IU/L; AST (72 h, time 3 day): 75.6 IU/L; BUN (72 h, time 3 day): 16.4 mg/dL; CRE (72 h, time 3 day): 0.1 mg/dL; Ca (72 h, time 3 day): 10.8 mg/dL; Cl (72 h, time 3 day): 106.6 meq/L; DBIL (72 h, time 3 day): 0.01 mg/dL; GLC (72 h, time 3 day): 176.8 mg/dL; IP (72 h, time 3 day): 7.4 mg/dL; K (72 h, time 3 day): 4.2 meq/L; LDH (72 h, time 3 day): 242.8 IU/L; Na (72 h, time 3 day): 142.6 meq/L; PL (72 h, time 3 day): 159.8 mg/dL; RALB (72 h, time 3 day): 3.3 g/dL; TBIL (72 h, time 3 day): 0.008 mg/dL; TC (72 h, time 3 day): 74.4 mg/dL; TG (72 h, time 3 day): 140.6 mg/dL; TP (72 h, time 3 day): 5.8 g/dL; gamma-GTP (72 h, time 3 day): 1 IU/L; TERMINAL_BW ([…], time 7 day): 265.4 g; TERMINAL_BW ([…], time 14 day): 312.1 g; TERMINAL_BW ([…], time 28 day): 361.5 g; APTT ([…], time 7 day): 22.3 s; Bas ([…], time 7 day): 0%; Eos ([…], time 7 day): 0.6%; Fbg ([…], time 7 day): 318.2 mg/dL; Hb ([…], time 7 day): 13.4 g/dL; Ht ([…], time 7 day): 38.8%; Lym ([…], time 7 day): 81.4%; MCH ([…], time 7 day): 21.1 pg; MCHC ([…], time 7 day): 34.6%; MCV ([…], time 7 day): 61.2 fL; Mono ([…], time 7 day): 2.2%; Neu ([…], time 7 day): 15.2%; PT ([…], time 7 day): 15.3 s; Plat ([…], time 7 day): 113.7 x10_4/uL; RBC ([…], time 7 day): 633.2 x10_4/ul; Ret ([…], time 7 day): 6.1%; WBC ([…], time 7 day): 110.8 x10_2/uL; APTT ([…], time 14 day): 21.8 s; Bas ([…], time 14 day): 0%; Eos ([…], time 14 day): 1.2%; Fbg ([…], time 14 day): 310.8 mg/dL; Hb ([…], time 14 day): 14.5 g/dL; Ht ([…], time 14 day): 40%; Lym ([…], time 14 day): 76.4%; MCH ([…], time 14 day): 20.9 pg; MCHC ([…], time 14 day): 36.3%; MCV ([…], time 14 day): 57.8 fL; Mono ([…], time 14 day): 2.6%; Neu ([…], time 14 day): 19%; PT ([…], time 14 day): 15.9 s; Plat ([…], time 14 day): 117.3 x10_4/uL; RBC ([…], time 14 day): 692.8 x10_4/ul; Ret ([…], time 14 day): 4.9%; WBC ([…], time 14 day): 125.2 x10_2/uL; APTT ([…], time 28 day): 22.5 s; Bas ([…], time 28 day): 0%; Eos ([…], time 28 day): 1%; Fbg ([…], time 28 day): 323.6 mg/dL; Hb ([…], time 28 day): 15.1 g/dL; Ht ([…], time 28 day): 42.5%; Lym ([…], time 28 day): 81.6%; MCH ([…], time 28 day): 19 pg; MCHC ([…], time 28 day): 35.4%; MCV ([…], time 28 day): 53.5 fL; Mono ([…], time 28 day): 2.4%; Neu ([…], time 28 day): 14.2%; PT ([…], time 28 day): 15.6 s; Plat ([…], time 28 day): 92.2 x10_4/uL; RBC ([…], time 28 day): 793.6 x10_4/ul; Ret ([…], time 28 day): 2.7%; WBC ([…], time 28 day): 166.9 x10_2/uL; KIDNEY_L ([…], time 7 day): 1.1 g; KIDNEY_R ([…], time 7 day): 1.2 g; KIDNEY_TOTAL ([…], time 7 day): 2.3 g; KIDNEY_L ([…], time 14 day): 1.2 g; KIDNEY_R ([…], time 14 day): 1.3 g; KIDNEY_TOTAL ([…], time 14 day): 2.6 g; KIDNEY_L ([…], time 28 day): 1.4 g; KIDNEY_R ([…], time 28 day): 1.4 g; KIDNEY_TOTAL ([…], time 28 day): 2.8 g; LIVER ([…], time 7 day): 12.3 g; LIVER ([…], time 14 day): 13.7 g; LIVER ([…], time 28 day): 14.2 g; A/G ([…], time 7 day): 1.3; ALP ([…], time 7 day): 1576.8 IU/L; ALT ([…], time 7 day): 43.4 IU/L; AST ([…], time 7 day): 77.8 IU/L; BUN ([…], time 7 day): 17.2 mg/dL; CRE ([…], time 7 day): 0.2 mg/dL; Ca ([…], time 7 day): 10.6 mg/dL; Cl ([…], time 7 day): 106 meq/L; DBIL ([…], time 7 day): 0 mg/dL; GLC ([…], time 7 day): 192.2 mg/dL; IP ([…], time 7 day): 7.2 mg/dL; K ([…], time 7 day): 4.3 meq/L; LDH ([…], time 7 day): 192.2 IU/L; Na ([…], time 7 day): 141.4 meq/L; PL ([…], time 7 day): 155.4 mg/dL; RALB ([…], time 7 day): 3.1 g/dL; TBIL ([…], time 7 day): 0.006 mg/dL; TC ([…], time 7 day): 75.6 mg/dL; TG ([…], time 7 day): 147.6 mg/dL; TP ([…], time 7 day): 5.5 g/dL; gamma-GTP ([…], time 7 day): 1.4 IU/L; A/G ([…], time 14 day): 1.2; ALP ([…], time 14 day): 1330.2 IU/L; ALT ([…], time 14 day): 44.6 IU/L; AST ([…], time 14 day): 79.2 IU/L; BUN ([…], time 14 day): 18.8 mg/dL; CRE ([…], time 14 day): 0.2 mg/dL; Ca ([…], time 14 day): 10.6 mg/dL; Cl ([…], time 14 day): 107.4 meq/L; DBIL ([…], time 14 day): 0 mg/dL; GLC ([…], time 14 day): 173.2 mg/dL; IP ([…], time 14 day): 6 mg/dL; K ([…], time 14 day): 4.2 meq/L; LDH ([…], time 14 day): 181.2 IU/L; Na ([…], time 14 day): 141 meq/L; PL ([…], time 14 day): 146.2 mg/dL; RALB ([…], time 14 day): 3.1 g/dL; TBIL ([…], time 14 day): 0 mg/dL; TC ([…], time 14 day): 76.2 mg/dL; TG ([…], time 14 day): 151.4 mg/dL; TP ([…], time 14 day): 5.7 g/dL; gamma-GTP ([…], time 14 day): 1 IU/L; A/G ([…], time 28 day): 1; ALP ([…], time 28 day): 1105.4 IU/L; ALT ([…], time 28 day): 41 IU/L; AST ([…], time 28 day): 70.4 IU/L; BUN ([…], time 28 day): 17.4 mg/dL; CRE ([…], time 28 day): 0.2 mg/dL; Ca ([…], time 28 day): 10.4 mg/dL; Cl ([…], time 28 day): 107 meq/L; DBIL ([…], time 28 day): 0.002 mg/dL; GLC ([…], time 28 day): 188.2 mg/dL; IP ([…], time 28 day): 6.1 mg/dL; K ([…], time 28 day): 4.1 meq/L; LDH ([…], time 28 day): 137 IU/L; Na ([…], time 28 day): 141.8 meq/L; PL ([…], time 28 day): 143 mg/dL; RALB ([…], time 28 day): 3.1 g/dL; TBIL ([…], time 28 day): 0.006 mg/dL; TC ([…], time 28 day): 71.4 mg/dL; TG ([…], time 28 day): 150.4 mg/dL; TP ([…], time 28 day): 6 g/dL; gamma-GTP ([…], time 28 day): 2.2 IU/L
